# Legend:
# CDK1/Cyclin B1 = CDK1/Cyclin B1 (Homo sapiens, UniProt P06493); assay: CDK1/Cyclin B1 Biochemical Assay (TR-FRET), 0.015 mM ATP; conditions: 0.15 μM Rb (Ser780)-biotin substrate, pH7.0, 60 min preincubation, 120 min reaction, room temperature
# In short: (§1)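 Kinase preincubated with compound (0–10 μM) 60 min at room temperature, then reaction started with ATP and 0.15 μM Rb (Ser780)-biotin peptide and run 120 min in HEPES pH 7.0 buffer with 50 mM MgCl2. Phospho-Rb detected by Eu-cryptate anti-pRb(Ser780)/streptavidin-XL665 TR-FRET (665/620 nm ratio); IC50 from four-parameter logistic fit.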
# CDK2/Cyclin E1 = CDK2/Cyclin E1 (Homo sapiens, UniProt P24941); assay: CDK2/Cyclin E1 Biochemical Assay (TR-FRET), 0.060 mM ATP; conditions: 0.15 μM Rb (Ser780)-biotin substrate, pH7.0, 60 min preincubation, 120 min reaction, room temperature
# In short: as §1
# Chain of CDK1/Cyclin B1 (P06493 whole entry): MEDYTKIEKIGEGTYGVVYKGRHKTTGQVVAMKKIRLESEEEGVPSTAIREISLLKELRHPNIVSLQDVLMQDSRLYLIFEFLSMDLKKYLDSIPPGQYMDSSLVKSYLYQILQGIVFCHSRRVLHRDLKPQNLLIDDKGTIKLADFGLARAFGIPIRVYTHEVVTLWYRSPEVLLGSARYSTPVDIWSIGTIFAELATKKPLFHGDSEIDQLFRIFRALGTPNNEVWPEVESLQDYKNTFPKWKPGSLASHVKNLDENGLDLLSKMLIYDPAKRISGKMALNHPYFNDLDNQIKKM
# Chain of CDK1/Cyclin B1 (P14635 whole entry partner): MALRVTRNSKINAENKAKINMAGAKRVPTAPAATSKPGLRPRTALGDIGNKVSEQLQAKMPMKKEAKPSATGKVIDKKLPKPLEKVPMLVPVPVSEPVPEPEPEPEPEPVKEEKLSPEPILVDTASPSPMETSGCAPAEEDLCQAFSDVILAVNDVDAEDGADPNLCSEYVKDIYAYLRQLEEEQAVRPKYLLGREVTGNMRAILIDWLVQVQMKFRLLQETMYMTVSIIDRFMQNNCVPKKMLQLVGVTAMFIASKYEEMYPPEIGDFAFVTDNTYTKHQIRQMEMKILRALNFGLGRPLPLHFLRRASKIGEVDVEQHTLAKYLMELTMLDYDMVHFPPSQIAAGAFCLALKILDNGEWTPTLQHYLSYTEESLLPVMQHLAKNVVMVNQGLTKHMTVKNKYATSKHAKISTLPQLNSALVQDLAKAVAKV
SMILES,IC50 (CDK1/Cyclin B1) [nM],IC50 (CDK2/Cyclin E1) [nM]
"CC(C)NC(=O)O[C@H]1CC[C@@H](c2cc(Nc3ccc4c(c3F)CNS4(=O)=O)n[nH]2)C1 (single isomer, unassigned) [Example 9b, cis-3-(3-((4-fluoro-1,1-dioxido-2,3-dihydrobenzo[d]isothiazol-5-yl)amino)-1H-pyrazol-5-yl)cyclopentyl isopropylcarbamate]",94,2.5
"CCCNC(=O)O[C@H]1CC[C@@H](c2cc(Nc3ccc4c(c3Cl)CNS4(=O)=O)n[nH]2)C1 (single isomer, unassigned) [Example 39a, cis-3-(3-((4-chloro-1,1-dioxido-2,3-dihydrobenzo[d]isothiazol-5-yl)amino)-1H-pyrazol-5-yl)cyclopentyl propylcarbamate]",1360,49
"CC1(NC(=O)O[C@H]2CC[C@@H](c3cc(Nc4ccc5c(c4F)CNS5(=O)=O)n[nH]3)C2)CC1 (single isomer, unassigned) [Example 140b, cis-3-(3-((4-fluoro-1,1-dioxido-2,3-dihydrobenzo[d]isothiazol-5-yl)amino)-1H-pyrazol-5-yl)cyclopentyl(1-methylcyclopropyl)carbamate]",38,1.4
"CC(=O)N1CCC(N2Cc3c(ccc(Nc4cc([C@@H]5CC[C@H](OC(=O)NC(C)C)C5)[nH]n4)c3F)S2(=O)=O)CC1 (relative stereo) [Example 78, cis-3-(3-((2-(1-acetylpiperidin-4-yl)-4-fluoro-1,1-dioxido-2,3-dihydrobenzo[d]isothiazol-5-yl)amino)-1H-pyrazol-5-yl)cyclopentyl isopropylcarbamate]",556,8.9
"CNC(=O)O[C@H]1CC[C@@H](c2cc(Nc3ccc4c(c3F)CNS4(=O)=O)n[nH]2)C1 (relative stereo) [Example 153, cis-3-(3-((4-fluoro-1,1-dioxido-2,3-dihydrobenzo[d]isothiazol-5-yl)amino)-1H-pyrazol-5-yl)cyclopentyl methylcarbamate]",1120,91

# More lines, now with the values ahead:
IC50 (CDK1/Cyclin B1) [nM],IC50 (CDK2/Cyclin E1) [nM],SMILES
73,6.7,"CC(C)NC(=O)OC1CC(c2cc(Nc3ccc4c(c3)CNS4(=O)=O)n[nH]2)C1 (centres unmarked) [Example 173, 3-(3-((1,1-dioxido-2,3-dihydrobenzo[d]isothiazol-5-yl)amino)-1H-pyrazol-5-yl)cyclobutyl isopropylcarbamate]"
48,2.6,"CC(C)NC(=O)O[C@@H]1CC[C@H](c2cc(Nc3ccc4c(c3)NS(=O)(=O)C4)n[nH]2)C1 (stereo in doubt) [Example 303a, cis-3-(3-((2,2-dioxido-1,3-dihydrobenzo[c]isothiazol-6-yl)amino)-1H-pyrazol-5-yl)cyclopentyl isopropylcarbamate]"
49,1.8,"CC(C)NC(=O)O[C@H]1CC[C@@H](c2cc(Nc3ccc4c(c3F)CS(=O)(=O)N4CCO)n[nH]2)C1 (single isomer, unassigned) [Example 271b, cis-3-(3-((4-fluoro-1-(2-hydroxyethyl)-2,2-dioxido-1,3-dihydrobenzo[c]isothiazol-5-yl)amino)-1H-pyrazol-5-yl)cyclopentyl isopropylcarbamate]"
> 10000,> 10000,"CC(C)NC(=O)O[C@H]1CC[C@@H](c2cc(Nc3cc(CO)c4c(c3F)CNS4(=O)=O)n[nH]2)C1 (relative stereo) [Example 365, cis-3-(3-((4-fluoro-7-(hydroxymethyl)-1,1-dioxido-2,3-dihydrobenzo[d]isothiazol-5-yl)amino)-1H-pyrazol-5-yl)cyclopentyl isopropylcarbamat]"
32,2,"O=C(NC1(CO)CCC1)O[C@H]1CC[C@@H](c2cc(Nc3ccc4c(c3F)CS(=O)(=O)N4)n[nH]2)C1 (relative stereo) [Example 418, cis-3-(3-((4-fluoro-2,2-dioxido-1,3-dihydrobenzo[c]isothiazol-5-yl)amino)-1H-pyrazol-5-yl)cyclopentyl(1-(hydroxymethyl)cyclobutyl)carbamate]"

# Reference: patent US20260297080A1, “BICYCLIC COMPOUNDS AS CDK INHIBITORS” (BeOne Medicines I GmbH, priority 2022, published 2026)
